The term Solubility denotes how much of the substance goes into solution per volume. Low readings indicate little dissolved substance, high ones much dissolved substance.

These results are taken from patent US8927015B2, “Formulations for delivering insulin” (Emisphere Technologies, Inc., priority 2006, dated 2015).

The conditions of data set [1]: for Solubility: pH 6.8.
Protocol: Excess insulin was added to buffer solutions at pH values of 1, 2, 3, 4, 5, 6, 6.8, and 7.4. Vials containing the solutions were shaken in a constant temperature water bath, and visually observed at regular time intervals. Samples were taken at 2 hours, 4 hours, and 24 hours and analyzed by a stability-indicating HPLC method.
The nature of data set [2]: Solubility of insulin in aqueous solutions containing a delivery agent. How it is done:
The solubility of insulin was investigated in aqueous solutions containing varying amounts of the delivery agent compound sodium 4-CNAB. The aqueous solution containing delivery agent was adjusted to pH 1 by the addition of 1N HCl and excess insulin was added to the acidified solution. Thereafter, the pH of the solution was increased by the addition of increments of 1N NaOH. Vials containing the suspensions were left without shaking or sonicating for 1-2 hours. The supernatant was analyzed for insulin and sodium 4-CNAB using an HPLC method and the pH was recorded. […] All of these experiments were performed at room temperature.

Data set [3] in a line: Dissolution of insulin pellet (USP Dissolution Type II paddle). It is filed as physicochemical. On the procedure: A 300 mg pellet of insulin was prepared in a die. The surface area of the pellet available to the dissolution medium was 0.484 cm^2. The pellet was compressed at 1200-1400 lbs on a Carver press to form discs. The die was then attached to the shaft of a dissolution apparatus (USP Dissolution Type II (Paddle) made by Vankel). The die was rotated at 100 rpm and then immersed in 500 mL of degassed dissolution medium maintained at 37° C. Dissolution experiments were conducted in water and in aqueous solutions containing sodium 4-CNAB. Samples of the solutions were taken over two hours and analyzed by HPLC. FIGS. 3 and 4 show dissolution profiles of insulin in deionized (DI) water and in 10 mg/mL sodium 4-CNAB solution, respectively.

Take “insulin type #2: recombinant human zinc insulin obtained from Eli Lilly Co.”: the Solubility in data set [1] was over 2000 µg/mL.
The compound `O=C(O)CCCCCCCNC(=O)c1ccccc1O` [SNAC, N-(8-[2-hydroxybenzoyl]-amino) caprylic acid] yielded an Insulin in data set [2] (delivery agent 150 mg/mL, pH 7.9, room temperature) of over 200 mg/mL.
“insulin type #1: recombinant human zinc insulin obtained from Diosynth France”: the “dissolution rate, visual observation” value in data set [1] (not observed at pH 1, 2, and 7.4 where dissolution was very rapid for both) is given as “dissolved faster than insulin type #2”. Also, the Solubility result in data set [1] is recorded as “greater than 4 mg/mL”.
Regarding `O=C(O)CCCNC(=O)c1ccc(Cl)cc1O` [Treatment 4-CNAB, 4-[(2-hydroxy-4-chlorobenzoyl)amino]butanoate], the Insulin in data set [2] (delivery agent 5 mg/mL, pH of delivery agent solution 6.4, room temperature) is 0.5 mg/mL; in data set [2] (delivery agent 10 mg/mL, pH 6.45, room temperature), 1 mg/mL; in data set [2] (delivery agent 50 mg/mL, pH 6.26, room temperature), 11 mg/mL; in data set [2] (delivery agent 50 mg/mL, pH 6.49, room temperature) it was 44 mg/mL; in data set [2] (delivery agent 100 mg/mL, pH 6.45, room temperature), over 110 mg/mL; in data set [2] (delivery agent 100 mg/mL, pH 6.71, room temperature) it was 86 mg/mL. Further, the Insulin in data set [2] (delivery agent 150 mg/mL, pH 6.83, room temperature) was 187 mg/mL; in data set [2] (delivery agent 200 mg/mL, pH 6.79, room temperature), over 135 mg/mL.
In data set [2] (delivery agent 250 mg/mL, pH 3.9, room temperature), `OCCN(CCO)CCCCCCCCOc1ccccc1O` [HPOD, 8-(2-hydroxyphenoxy)octyldiethanolamine] displayed an Insulin of over 50 mg/mL.
In the case of “Insulin: insulin (recombinant human insulin) whose solubility and dissolution were tested”, the “rate of insulin dissolution” value in data set [3] (10 mg/mL sodium 4-CNAB dissolution media versus deionized water, 37° C., 100 rpm) is “significantly greater”. The “insulin levels in dissolution media” value in data set [3] (50 mg/ml sodium 4-CNAB dissolution media, HPLC) is listed as “below the detection limits”. In data set [2] (None (DI water), pH 6.3, room temperature), this compound came in with an Insulin of 1.14 mg/mL.
